Measurements: US6413517B1, “Identification of broadly reactive DR restricted epitopes” (Epimmune, Inc., priority 1997, dated 2002)
Where two headings read alike, the source gives them in different places. No end group written: not given here.

Experiments:
[1] = molecular target: T1, DRB1*0101 (DR1) (Homo sapiens, UniProt P01903+P01911, A100R/D57E/F55L/F60I/F76Y/I96L/L162R/M171V/P40L/Q125E/R42F/V115G/Y59C); assay: biochemical; type: binding
T1 construct: Epstein-Barr virus (EBV) transformed homozygous cell lines were used as sources; endogenous in cells; host or cells: LG2 (EBV-transformed homozygous B cell line)

[2] = molecular target: T2, DRB1*0901 (DR9) (Homo sapiens, UniProt P01903+P01911, A100R/A103E/D57H/D86V/F55Y/F60I/F76Y/I96F/K127E/L162R/M171V/P40D/Q125H/Q99R/R33Q/R42F/S133A/S66N/T210M/V115G/W38K/Y107V/Y59G/Y89S); assay: biochemical; type: binding
T2 construct: Epstein-Barr virus (EBV) transformed homozygous cell lines were used as sources; endogenous in cells

[3] = molecular target: T3, DRB1*1101 (DR5w11) (Homo sapiens, UniProt P01903+P01911, A100R/A169T/A87E/I96F/K41T/L162R/M171V/P40S/Q125H/Q178H/Q39Y/Q99D/R42S/S66Y/T262R/V115G/W38E); assay: biochemical; type: binding
T3 construct: Epstein-Barr virus (EBV) transformed homozygous cell lines were used as sources; endogenous in cells; host or cells: SWEIG (EBV-transformed homozygous B cell line)
T3 sequence (P01903 26-254, other chains not shown): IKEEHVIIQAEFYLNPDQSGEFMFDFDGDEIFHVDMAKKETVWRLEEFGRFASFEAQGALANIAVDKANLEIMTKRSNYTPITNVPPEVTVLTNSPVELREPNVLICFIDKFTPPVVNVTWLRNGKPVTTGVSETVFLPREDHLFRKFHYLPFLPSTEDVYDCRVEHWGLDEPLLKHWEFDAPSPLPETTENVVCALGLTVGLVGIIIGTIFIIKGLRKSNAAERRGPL

[4] = molecular target: T4, DRB1*0301 (DR3w17) (Homo sapiens, UniProt P01903+P01911, A100K/A102G/A103R/A169T/F55Y/I96L/K41T/L162R/M171V/P40S/Q125H/Q178H/Q39Y/R42S/S66N/T106N/T262R/W38E/Y61H); conditions: read-out: Binding Capacity (IC 50% nM) Other Alleles DR3
[5] = molecular target: T5, DRB1*1302 (DR6w19) (Homo sapiens, UniProt P01903+P01911, A100E/A169T/K41T/L162R/M171V/P40S/Q125H/Q178H/Q39Y/Q99D/R42S/S66N/T262R/V115G/W38E/Y61H); assay: biochemical; type: binding
T5 construct: Epstein-Barr virus (EBV) transformed homozygous cell lines were used as sources; the source of Class II molecules the EBV transformed homozygous cell line H0301; endogenous in cells; host or cells: H0301 (EBV-transformed homozygous B cell line)

[6] = molecular target: T6, DRB1*1201 (DR5w12) (Homo sapiens, UniProt P01903+P01911, A100R/A169T/D57E/D86V/F55L/H45Y/K41T/L162R/M171V/P40S/Q125H/Q178H/Q39Y/Q99D/R42G/S66L/T262R/V114A/V67L/W38E/Y59H/Y61H/Y89S); assay: biochemical; type: binding
T6 construct: Epstein-Barr virus (EBV) transformed homozygous cell lines were used as sources; endogenous in cells; host or cells: Herluf (EBV-transformed homozygous B cell line)

[7] = molecular target: T7, DRB1*0401 (DR4w4) (Homo sapiens, UniProt P01903+P01911, A100K/A169T/F76Y/I96L/K127E/L162R/M171V/N62H/P40V/Q125Y/R42H/S133A/S149N/S66Y/V115G/V209L/W38E); assay: biochemical; type: binding
T7 construct: Epstein-Barr virus (EBV) transformed homozygous cell lines were used as sources; endogenous in cells; host or cells: PREISS (EBV-transformed homozygous B cell line)

[8] = molecular target: T4, DRB1*0301 (DR3w17); assay: biochemical; conditions: Binding Capacity (IC50% nM) DR3
[9] = molecular target: T8, DRB1*1501 (DR2w2b) (Homo sapiens, UniProt P01903+P01911); assay: biochemical; type: binding
T8 construct: expressed in transfected cells; host or cells: transfected fibroblasts L466.1

[10] = molecular target: T9, DRB1*0802 (DR8w2) (Homo sapiens, UniProt P01903+P01911, A100R/A103L/A169T/F76Y/H45Y/I96F/K41T/L162R/M171V/P40S/Q125H/Q178H/Q39Y/Q99D/R218S/R42G/S66Y/V115G/W38E); assay: biochemical; type: binding
T9 construct: Epstein-Barr virus (EBV) transformed homozygous cell lines were used as sources; endogenous in cells; host or cells: OLL (EBV-transformed homozygous B cell line)

[11] = molecular target: T10, DRB1*0701 (DR7) (Homo sapiens, UniProt P01903+P01911, A100R/A102G/A103Q/D57E/D86V/E43K/F76Y/K127E/L162R/M171V/P40G/Q125H/Q99D/R33Q/R42Y/R54Q/S133A/S66F/T210M/V115G/Y107V/Y59L/Y89S); assay: biochemical; type: binding
T10 construct: Epstein-Barr virus (EBV) transformed homozygous cell lines were used as sources; endogenous in cells; host or cells: PITOUT (EBV-transformed homozygous B cell line)

[12] = molecular target: T11, DRB5*0101 (DR2w2a) (Homo sapiens, UniProt P01903+Q30154); assay: biochemical; type: binding
T11 construct: Epstein-Barr virus (EBV) transformed homozygous cell lines were used as sources; endogenous in cells; host or cells: GM3107 (EBV-transformed homozygous B cell line)

[13] = molecular target: T12, DRB1*0405 (DR4w15) (Homo sapiens, UniProt P01903+P01911, A100R/A169T/D86S/F76Y/I96L/K127E/L162R/M171V/N62H/P40V/Q125Y/R42H/S133A/S149N/S66Y/V115G/V209L/W38E); assay: biochemical; type: binding
T12 construct: Epstein-Barr virus (EBV) transformed homozygous cell lines were used as sources; endogenous in cells; host or cells: KT3 (EBV-transformed homozygous B cell line)

[14] = Binding Capacity (IC 50% nM) DR1,4,7 DRB1
[15] = read-out: Binding Capacity (IC 50% nM) Other Alleles DR5w11
[16] = Binding Capacity (IC50% nM) DR6w19
[17] = Binding Capacity (IC50% nM) DR5w12
[18] = read-out: Binding Capacity (IC 50% nM) Other Alleles DR5w12
[19] = Binding Capacity (IC 50% nM) DR1,4,7 DR4w4
[20] = read-out: Binding Capacity (IC 50% nM) Other Alleles DR2w2b
[21] = read-out: Binding Capacity (IC 50% nM) Other Alleles DR8w2
[22] = Binding Capacity (IC 50% nM) Other Alleles DR2w2a
[23] = Binding Capacity (IC 50% nM) Other Alleles DR4w15
[24] = Binding Capacity (IC50% nM) DR9
[25] = read-out: Binding Capacity (IC 50% nM) Other Alleles DR9
[26] = Binding Capacity (IC50% nM) DR5w11
[27] = read-out: Binding Capacity (IC 50% nM) Other Alleles DR6w19
[28] = Binding Capacity (IC50% nM) DR2w2b
[29] = Binding Capacity (IC50% nM) DR8w2
[30] = Binding Capacity (IC50% nM) DR7
[31] = read-out: Binding Capacity (IC 50% nM) DR1,4,7 DR7
[32] = Binding Capacity (IC50% nM) DR4w15

Row | Molecule | IC50 [1, 14] [nM] | IC50 [3, 15] [nM] | IC50 [4] [nM] | IC50 [5, 16] [nM] | IC50 [6, 17] [nM] | IC50 [6, 18] [nM] | IC50 [7, 19] [nM] | IC50 [8] [nM] | IC50 [9, 20] [nM] | IC50 [10, 21] [nM] | IC50 [12, 22] [nM] | IC50 [13, 23] [nM] | IC50 [2, 24] [nM] | IC50 [2, 25] [nM] | IC50 [3, 26] [nM] | IC50 [5, 27] [nM] | IC50 [9, 28] [nM] | IC50 [10, 29] [nM] | IC50 [11, 30] [nM] | IC50 [11, 31] [nM] | other results
1 | CC[C@H](C)[C@H](N)C(=O)N1CCC[C@H]1C(=O)N[C@@H](CCC(N)=O)C(=O)N[C@@H](CCC(=O)O)C(=O)N[C@@H](Cc1c[nH]c2ccccc12)C(=O)N[C@@H](CCCCN)C(=O)N1CCC[C@H]1C(=O)N[C@@H](C)C(=O)N[C@H](C(=O)N[C@H](C(=O)N[C@H](C(=O)N[C@@H](CCCCN)C(=O)N[C@H](C(=O)N[C@@H](CC(C)C)C(=O)N1CCC[C@H]1C(=O)N[C@@H](C)C(=O)O)C(C)C)C(C)C)[C@@H](C)O)[C@@H](C)CC [Peptide 1136.21] | < 1000 | > 1000 | > 1000 | 259 | > 10000 | > 1000 | < 1000 | > 10000 | > 1000 | > 1000 | < 1000 | < 1000 | – | – | – | – | – | – | – | – | IC50 ([2]; Binding Capacity (IC 50% nM) Other Alleles DR9): < 1000 nM; IC50 ([5]; Binding Capacity (IC 50% nM) Other Alleles DR6w19): < 1000 nM; IC50 ([11]; Binding Capacity (IC 50% nM) DR1,4,7 DR7): < 1000 nM
2 | LFHYYFLSEKAPGSTV [Peptide 1136.04] | < 1000 | – | > 1000 | > 10000 | > 10000 | > 1000 | < 1000 | > 10000 | > 1000 | – | < 1000 | < 1000 | 2880 | > 1000 | 69 | > 1000 | 1260 | 55 | 3330 | > 1000 | IC50 ([1]; Binding Capacity (IC50% nM) DR1): 24 nM; IC50 ([3]; Binding Capacity (IC 50% nM) Other Alleles DR5w11): < 1000 nM; IC50 ([7]; Binding Capacity (IC50% nM) DR4w4): 20 nM; IC50 ([10]; Binding Capacity (IC 50% nM) Other Alleles DR8w2): < 1000 nM; IC50 [13, 32]: 563 nM
3 | QEIDPLSYNYIPVNSN [Peptide 1136.55] | < 1000 | > 1000 | > 1000 | 5000 | > 10000 | > 1000 | < 1000 | > 10000 | > 1000 | > 1000 | – | < 1000 | > 10000 | > 1000 | 4540 | > 1000 | > 10000 | > 10000 | 2450 | > 1000 | IC50 ([12]; Binding Capacity (IC50% nM) DR2w2a): > 10000 nM; IC50 ([12]; read-out: Binding Capacity (IC 50% nM) Other Alleles DR2w2a): > 1000 nM; IC50 [13, 32]: 271 nM
